Assay results from patent US10907158B2, “Antisense antibacterial compounds and methods” (priority 2015, dated 2021).
Values belong to the compound of their own block, whether it stands above or below them.

Key:
NDM-1 strains = assay: MIC of meropenem in various concentrations of NDM-1 PPMO; format: cell-based, K. pneumoniae; conditions: Klebsiella pneumoniae; meropenem without PPMO
K. pneumoniae = assay: MIC of meropenem in various concentrations of KPC PPMO; conditions: Klebsiella pneumoniae, read-out: MIC of meropenem
E. coli BW25113 = format: cell-based; conditions: Pip/Tazo alone, 18 h, MHII
Pseudomonas aeruginosa = conditions: 18 hours

MIC (NDM-1 strains): 64 µg/mL | MIC (K. pneumoniae): 32 µg/mL
Compound: C[C@@H](O)[C@H]1C(=O)N2C(C(=O)O)=C(S[C@@H]3CN[C@H](C(=O)N(C)C)C3)[C@H](C)[C@H]12 [meropenem]

Compound: Piperacillin/Tazobactam [Pip/Tazo]
MIC (E. coli BW25113): 4 µg/mL

Compound: Polymyxin B nonapeptide [PMBN]
effect on biofilm formation (Pseudomonas aeruginosa): did not significantly alter biofilm formation
